Results from the supplement of paper PMC10307832.

Compound: COc1cccc2cc(-c3nc([C@H]4CC[C@H](C(=O)O)CC4)n4ncnc(N)c34)[nH]c12 [OSI-027] + Cc1nc(NC(=O)N2CCC[C@H]2C(N)=O)sc1-c1ccnc(C(C)(C)C(F)(F)F)c1 [Alpelisib] (partner 2 µM)
Assay: relative viability (nuclei count vs DMSO), 5 days (fraction); higher = more cells survive
Summary of the method: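 Cells from lung cancer lines were seeded into 1536-well plates and, one day later, dosed by pin tool. Treatments were either a single drug or a fixed dose of an anchor drug with five library-drug doses (not always all listed) in √10 steps. After 5 days, nuclei were stained in a one-step fixation (final 0.05% Triton X-100, 1% formaldehyde, 1 ug/ml Hoechst) and counted on 4× images, and relative viability is the treated-to-vehicle nuclei ratio, as the median of duplicate plates.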

Cell Line | relative viability (first compound 0.01 µM) | relative viability (first compound 0.03162 µM) | relative viability (first compound 0.1 µM) | relative viability (first compound 0.3162 µM) | relative viability (first compound 1 µM)
201T | 0.998 | 1 | 0.963 | 0.919 | 0.545
A549 | 0.718 | 0.612 | 0.727 | 0.361 | 0.131
A-427 | 1.04 | 1.08 | 0.961 | 0.82 | 0.429
ABC-1 | 0.98 | 0.921 | 0.903 | 0.628 | 0.537
BEN | 1.02 | 0.695 | 0.67 | 0.447 | 0.319
CAL-12T | 1.28 | 0.907 | 1.09 | 0.954 | 0.391
COR-L23 | 0.876 | 0.784 | 0.696 | 0.486 | 0.273
COR-L 105 | 1.05 | 0.85 | 0.963 | 0.658 | 0.524
Calu-6 | 0.917 | 0.974 | 0.75 | 0.697 | 0.42
EBC-1 | 0.79 | 0.909 | 0.823 | 0.478 | 0.343
EKVX | 0.731 | 0.849 | 0.73 | 0.625 | 0.351
EMC-BAC-2 | 0.723 | 0.727 | 0.647 | 0.558 | 0.309
EPLC-272H | 0.889 | 0.866 | 0.828 | 0.619 | 0.599
H3255 | 0.589 | 0.731 | 0.537 | 0.503 | 0.376
HARA | 0.81 | 0.655 | 0.785 | 0.495 | 0.291
HCC-15 | 0.928 | 0.826 | 0.806 | 0.674 | 0.288
HCC-44 | 0.795 | 0.775 | 0.738 | 0.574 | 0.215
HCC-78 | 0.337 | 0.3 | 0.248 | 0.14 | 0.163

Cell Line | relative viability (first compound 0.01 µM) | relative viability (first compound 0.03162 µM) | relative viability (first compound 0.1 µM) | relative viability (first compound 0.3162 µM) | relative viability (first compound 1 µM)
HCC-366 | 0.373 | 0.423 | 0.256 | 0.243 | 0.1
HCC-827 | 0.871 | 1.03 | 0.921 | 0.736 | 0.281
HOP-62 | 1.13 | 0.881 | 0.934 | 0.81 | 0.333
IA-LM | 0.791 | 0.686 | 0.455 | 0.322 | 0.113
LC-2-ad | 0.886 | 0.876 | 0.723 | 0.74 | 0.304
LCLC-97TM1 | 0.208 | 0.207 | 0.203 | 0.145 | 0.123
LCLC-103H | 0.852 | 0.922 | 0.991 | 0.877 | 0.767
LK-2 | 1.18 | 0.835 | 0.84 | 0.321 | 0.165
LOU-NH91 | 0.692 | 0.689 | 0.616 | 0.558 | 0.47
LU99A | 0.486 | 0.455 | 0.312 | 0.193 | 0.204
LXF-289 | 1.05 | 1.05 | 0.991 | 0.909 | 0.496
NCI-H23 | 0.594 | 0.54 | 0.632 | 0.481 | 0.295
NCI-H322M | 0.0629 | 0.772 | 0.775 | 0.539 | 0.521
NCI-H358 | 0.98 | 0.774 | 0.757 | 0.478 | 0.297
NCI-H441 | 0.716 | 0.718 | 0.686 | 0.636 | 0.273
NCI-H460 | 0.541 | 0.404 | 0.314 | 0.168 | 0.119
NCI-H520 | 1.11 | 0.833 | 0.701 | 0.41 | 0.205
NCI-H596 | 0.432 | 0.534 | 0.503 | 0.503 | 0.354
